13 molecules from US12559492B2, “BRAF degraders” (C4 Therapeutics, Inc., priority 2020, dated 2026) can be followed below.

Broadly, the DC50 is the concentration giving 50% degradation. Low readings indicate degradation at low concentration, high ones degradation only at high concentration. By Emax is commonly meant the maximal effect, on the per cent scale that the assay sets.

In the assay the target is BRAF^V600E protein (Homo sapiens, UniProt P15056, V600E). Put plainly: HiBiT cellular BRAF V600E degradation assay. The format is cell-based. The following applies: for DC50: A375.10 cells (HiBiT tag knocked in at N-terminal of BRAF V600E), concentration at which 50% of total cellular BRAF V600E is degraded; for Emax: read-out: HiBit 24 h Emax. In general terms: The HiBiT peptide binds its large partner to form an active luciferase.

The mark [1] stands for this setting: A375.10 cells, 24 h incubation, Emax = amount of residual protein remaining in the cell after compound treatment.

Read-outs that look alike come from different tables or passages of the source.

Sequence of BRAF^V600E protein (P15056 whole entry V600E): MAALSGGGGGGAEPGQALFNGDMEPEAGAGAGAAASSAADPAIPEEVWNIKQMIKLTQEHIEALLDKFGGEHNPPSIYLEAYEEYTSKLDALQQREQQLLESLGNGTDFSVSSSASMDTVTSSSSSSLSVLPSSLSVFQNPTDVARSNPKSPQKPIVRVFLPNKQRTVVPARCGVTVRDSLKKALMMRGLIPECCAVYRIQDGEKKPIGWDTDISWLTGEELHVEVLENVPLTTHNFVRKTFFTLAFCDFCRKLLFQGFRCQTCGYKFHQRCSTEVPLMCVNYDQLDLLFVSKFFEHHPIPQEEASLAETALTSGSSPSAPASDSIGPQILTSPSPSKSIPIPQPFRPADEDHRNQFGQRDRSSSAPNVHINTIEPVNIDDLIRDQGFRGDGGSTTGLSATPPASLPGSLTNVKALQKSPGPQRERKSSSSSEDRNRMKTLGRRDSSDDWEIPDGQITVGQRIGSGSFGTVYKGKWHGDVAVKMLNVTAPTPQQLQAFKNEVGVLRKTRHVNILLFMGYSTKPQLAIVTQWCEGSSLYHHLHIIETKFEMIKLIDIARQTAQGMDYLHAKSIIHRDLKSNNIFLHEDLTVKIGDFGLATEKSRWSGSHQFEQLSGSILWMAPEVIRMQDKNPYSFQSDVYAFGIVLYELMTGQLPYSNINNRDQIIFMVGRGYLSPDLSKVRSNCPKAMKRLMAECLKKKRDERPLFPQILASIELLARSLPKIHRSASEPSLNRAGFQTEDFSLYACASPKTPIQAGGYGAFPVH

Consider `CC(C)S(=O)(=O)Nc1ccc(F)c(C(=O)c2c[nH]c3ncc(-c4cnc(N5CCN(C(=O)CN6CCC(c7ccc(C8CCC(=O)NC8=O)cc7)CC6)CC5)nc4)cc23)c1F` (centres unmarked) [Example 8, N-[3-[5-[2-[4-[2-[4-[4-(2,6-dioxo-3-piperidyl)phenyl]-1-piperidyl]acetyl]piperazin-1-yl]pyrimidin-5-yl]-1H-pyrrolo[2,3-b]pyridine-3-carbonyl]-2,4-difluoro-phenyl]propane-2-sulfonamide], for which it took 4.67 nM to reach half-maximal degradation (24 h incubation) (DC50). In addition, under setting [1], the Emax is 2.37%.

For the molecule `CCN(C)S(=O)(=O)Nc1ccc(F)c(C(=O)c2c[nH]c3ncc(-c4cnc(N5CCN(C(=O)CN6CCC(c7ccc(NC8CCC(=O)NC8=O)cc7)CC6)CC5)c(C#N)c4)cc23)c1F` (centres unmarked) [Example 82, 5-[5-cyano-6-[4-[2-[4-[4-[(2,6-dioxo-3-piperidyl)amino]phenyl]-1-piperidyl]acetyl]piperazin-1-yl]-3-pyridyl]-3-[3-[[ethyl(methyl)sulfamoyl]amino]-2,6-difluoro-benzoyl]-1H-pyrrolo[2,3-b]pyridine], the Emax stood at 7.6%. This molecule also showed a DC50 (24 h incubation) of 7.57 nM.

Regarding `CCN(C)S(=O)(=O)Nc1ccc(F)c(C(=O)c2c[nH]c3ncc(-c4cnc(C5CCN(C(=O)CN6CCC(c7ccc(NC8CCC(=O)NC8=O)cc7)CC6)CC5)nc4)cc23)c1F` (centres unmarked) [Example A46, 5-[2-[1-[2-[4-[4-[(2,6-Dioxopiperidin-3-yl)amino]phenyl]piperidin-1-yl]acetyl]piperidin-4-yl]pyrimidin-5-yl]-3-[3-[[ethyl(methyl)sulfamoyl]amino]-2,6-difluorobenzoyl]-1H-pyrrolo[2,3-b]pyridine], under “24 h incubation”, the DC50 is 7.44 nM. Besides, the maximal effect (Emax) under setting [1] came out at 10.8%.

For the molecule `CCN(C)S(=O)(=O)Nc1ccc(F)c(C(=O)c2c[nH]c3ncc(-c4cnc(N5CCN(C(=O)CC6CCN(c7ccc(NC8CCC(=O)NC8=O)cc7F)CC6)CC5)nc4)cc23)c1F` (centres unmarked) [Example 42, 5-[2-[4-[2-[1-[4-[(2,6-dioxo-3-piperidyl)amino]-2-fluoro-phenyl]-4-piperidyl]acetyl]piperazin-1-yl]pyrimidin-5-yl]-3-[3-[[ethyl(methyl)sulfamoyl]amino]-2,6-difluoro-benzoyl]-1H-pyrrolo[2,3-b]pyridine], it took 3.41 nM to reach half-maximal degradation (24 h incubation) (DC50). Besides, the Emax under setting [1] is 11.5%.

In turn, `CCN(C)S(=O)(=O)Nc1ccc(F)c(C(=O)c2c[nH]c3ncc(-c4ccc(N5CCN(C(=O)CN6CCC(Nc7ccc8c(C9CCC(=O)NC9=O)nn(C)c8c7)CC6)CC5)nc4)cc23)c1F` (centres unmarked) [Example 75, 3-(2,6-dioxo-3-piperidyl)-6-[[1-[2-[4-[5-[3-[3-[[ethyl(methyl)sulfamoyl]amino]-2,6-difluoro-benzoyl]-1H-pyrrolo[2,3-b]pyridin-5-yl]-2-pyridyl]piperazin-1-yl]-2-oxo-ethyl]-4-piperidyl]amino]-1-methyl-indazole] yielded a half-maximal degradation concentration (DC50) (24 h incubation) of 6.26 nM. In addition, under setting [1], the Emax stood at 11.6%.

`CCN(C)S(=O)(=O)Nc1ccc(F)c(C(=O)c2c[nH]c3ncc(-c4cnc(N5CCN(C(=O)CN6CCC(c7ccc(OC8CCC(=O)NC8=O)cc7)CC6)CC5)nc4)cc23)c1F` (centres unmarked) [Example A6, 5-[2-[4-[2-[4-[4-(2,6-Dioxopiperidin-3-yl)oxyphenyl]piperidin-1-yl]acetyl]piperazin-1-yl]pyrimidin-5-yl]-3-[3-[[ethyl(methyl)sulfamoyl]amino]-2,6-difluorobenzoyl]-1H-pyrrolo[2,3-b]pyridine] had a half-maximal degradation concentration (DC50) (24 h incubation) of 15 nM. Also, the Emax under setting [1] worked out at 13%.

In turn, `CCN(C)S(=O)(=O)Nc1cccc(C(=O)c2c[nH]c3ncc(-c4ccc(N5CCN(C(=O)CC6(O)CCN(c7ccc(N8CCC(=O)NC8=O)cc7F)CC6)CC5)nc4)cc23)c1F` [Example 164, 5-[6-[4-[2-[1-[4-(2,4-dioxohexahydropyrimidin-1-yl)-2-fluoro-phenyl]-4-hydroxy-4-piperidyl]acetyl]piperazin-1-yl]-3-pyridyl]-3-[3-[[ethyl(methyl)sulfamoyl]amino]-2-fluoro-benzoyl]-1H-pyrrolo[2,3-b]pyridine] displayed a DC50 (24 h incubation) of 2.31 nM. In addition, the maximal response (Emax) under setting [1] turned out to be 10.2%.

For `CC(C)S(=O)(=O)Nc1ccc(F)c(C(=O)c2c[nH]c3ncc(-c4cnc(N5CCN(C(=O)CN6CCC(c7ccc(C8CCC(=O)NC8=O)cc7F)CC6)CC5)nc4)cc23)c1F` (centres unmarked) [Example 9, N-[3-[5-[2-[4-[2-[4-[4-(2,6-dioxo-3-piperidyl)-2-fluoro-phenyl]-1-piperidyl]acetyl]piperazin-1-yl]pyrimidin-5-yl]-1H-pyrrolo[2,3-b]pyridine-3-carbonyl]-2,4-difluoro-phenyl]propane-2-sulfonamide], half-maximal degradation (24 h incubation) (DC50) was put at 10.7 nM. Besides, under setting [1], the Emax is 3.41%.

Where the note is “24 h incubation”, `CCN(C)S(=O)(=O)Nc1ccc(F)c(C(=O)c2c[nH]c3ncc(-c4cnc(N5CCN(C(=O)CN6CCC(c7ccc8c(c7)n(C)c(=O)n8C7CCC(=O)NC7=O)CC6)CC5)nc4)cc23)c1F` (centres unmarked) [Example 33, 1-(2,6-dioxo-3-piperidyl)-5-[1-[2-[4-[5-[3-[3-[[ethyl(methyl)sulfamoyl]amino]-2,6-difluoro-benzoyl]-1H-pyrrolo[2,3-b]pyridin-5-yl]pyrimidin-2-yl]piperazin-1-yl]-2-oxo-ethyl]-4-piperidyl]-3-methyl-2-oxo-benzimidazole] returned a DC50 of 2.51 nM. Moreover, the Emax under setting [1] turned out to be 19.2%.

For `CCN(C)S(=O)(=O)Nc1cccc(C(=O)c2c[nH]c3ncc(-c4ccc(N5CCN(C(=O)CC6(O)CCN(c7ccc(NC8CCC(=O)NC8=O)cc7)CC6)CC5)cc4)cc23)c1F` (centres unmarked) [Example 116, 5-[4-[4-[2-[1-[4-[(2,6-dioxo-3-piperidyl)amino]phenyl]-4-hydroxy-4-piperidyl]acetyl]piperazin-1-yl]phenyl]-3-[3-[[ethyl(methyl)sulfamoyl]amino]-2-fluoro-benzoyl]-1H-pyrrolo[2,3-b]pyridine], it took 5.32 nM to reach half-maximal degradation (24 h incubation) (DC50). Under setting [1], the Emax was found to be 13.4%.

For the setting “24 h incubation”, `CCN(C)S(=O)(=O)Nc1ccc(F)c(C(=O)c2c[nH]c3ncc(-c4cnc(N5CC6(C5)CN(C5CCN(c7ccc(NC8CCC(=O)NC8=O)cc7F)CC5)C6)nc4)cc23)c1F` (centres unmarked) [Example 203, 5-[2-[2-[1-[4-[(2,6-dioxo-3-piperidyl)amino]-2-fluoro-phenyl]-4-piperidyl]-2,6-diazaspiro[3.3]heptan-6-yl]pyrimidin-5-yl]-3-[3-[[ethyl(methyl)sulfamoyl]amino]-2,6-difluoro-benzoyl]-1H-pyrrolo[2,3-b]pyridine] came in with a 50% degradation concentration (DC50) of 2.28 nM. Also, the Emax under setting [1] was 5.13%.

With `CCN(C)S(=O)(=O)Nc1cccc(C(=O)c2c[nH]c3ncc(-c4ccc(N5CCN(C(=O)CC6(O)CCN(c7ccc(NC8CCC(=O)NC8=O)cn7)CC6)CC5)nc4)cc23)c1F` (centres unmarked) [Example 113, 5-[6-[4-[2-[1-[5-[(2,6-dioxo-3-piperidyl)amino]-2-pyridyl]-4-hydroxy-4-piperidyl]acetyl]piperazin-1-yl]-3-pyridyl]-3-[3-[[ethyl(methyl)sulfamoyl]amino]-2-fluoro-benzoyl]-1H-pyrrolo[2,3-b]pyridine], for the setting “24 h incubation”, the DC50 came out at 26.3 nM. The maximal response (Emax) under setting [1] was 27.7%.

The molecule `CCN(C)S(=O)(=O)Nc1ccc(F)c(C(=O)c2c[nH]c3ncc(-c4ccc(OC5CCN(C(=O)CN6CCC(c7ccc(OC8CCC(=O)NC8=O)cc7)CC6)CC5)cc4)cc23)c1F` (centres unmarked) [Example A30, 5-[4-[1-[2-[4-[4-(2,6-Dioxopiperidin-3-yl)oxyphenyl]piperidin-1-yl]acetyl]piperidin-4-yl]oxyphenyl]-3-[3-[[ethyl(methyl)sulfamoyl]amino]-2,6-difluorobenzoyl]-1H-pyrrolo[2,3-b]pyridine] gave a 50% degradation concentration (DC50) (24 h incubation) of 53 nM. The maximal effect (Emax) under setting [1] is 13%.
